Patent US20140135359A1, “METHODS OF DESIGNING, PREPARING, AND USING NOVEL PROTONOPHORES” (priority 2012, published 2014)
Entries after “also recorded” stand apart in the source; their conditions may differ. Where two headings read alike, the source gives them in different places.

Key:
[1] = test system: isolated rat liver mitochondria; test: Uncoupling activity: increase in basal (state 4) oxygen consumption by oxygraphy; assay type: biochemical; details: for Measured Uncoupling (% uncoupling ± SEM @ 100 μM): Table 1A, relative to ADP-stimulated respiration = 100%; for slope of the linear portion of the concentration-to-activity relationship: logarithmic scales
[2] = test system: isolated rat liver mitochondria; test: Residual functional capacity / inhibitory effect on ADP-stimulated (state 3) oxygen consumption; assay type: biochemical; details: for inhibition of ADP-stimulated oxygen consumption: screening at 100 μM
[3] = Suppl. Table 1, 100 μM, 2-3 mitochondrial preparations
[4] = test conc. 25 μM, increase in basal (state 4) oxygen consumption as % of average ADP-stimulated (state 3) rate in vehicle-treated mitochondria
[5] = test conc. 100 μM, increase in basal (state 4) oxygen consumption as % of average ADP-stimulated (state 3) rate in vehicle-treated mitochondria
[6] = test conc. 25 μM, functional capacity (state 3 minus state 4 rate) as % of vehicle-treated mitochondria
[7] = test conc. 100 μM, functional capacity (state 3 minus state 4 rate) as % of vehicle-treated mitochondria

| Compound | Measured Uncoupling Activity (% uncoupling ± SEM @ 100 μM) [1, 3] [% uncoupling] | Uncoupling (%) [1, 4] [%] | Uncoupling (%) [1, 5] [%] | Inhibitory effect (%) ([2]; test conc. 25 μM) | Residual capacity (%) [2, 6] [%] | Inhibitory effect (%) ([2]; test conc. 100 μM) | Residual capacity (%) [2, 7] [%] | other results |
| --- | --- | --- | --- | --- | --- | --- | --- | --- |
| COc1ccc(C2CC(=O)c3c(O)cc(O)cc3O2)cc1O (racemic) [(±) hesperetin, hesperetin] | 5 ± 1 | 1 ± 1 | 5 ± 1 | 8 | 91 ± 8 | 14 | 81 ± 2 |  |
| O=C1C[C@@H](c2ccc(O)cc2)Oc2cc(O)cc(O)c21 (racemic) [(±) naringenin, naringenin] | 4 ± 2 |  | 4 ± 2 |  |  | 31 | 65 ± 7 |  |
| Oc1cc(O)c2c(c1)OC(c1ccc(O)c(O)c1)C(O)C2 (single isomer, unassigned; (+)) [(+) catechin, catechin] | −2 ± 0 |  | −2 ± 0 |  |  | 2 | 98 ± 5 |  |
| CC(=O)c1ccc(O)cc1 [4-acetylphenol] | 0 ± 0 |  | 0 ± 0 |  |  | 13 | 87 ± 1 | uncoupling activity ([1]; 100 μM, result in words): lack of activity |
| O=C(/C=C/c1ccccc1)c1ccc(O)cc1 [4′-hydroxychalcone] | 74 ± 14 | 13 ± 2 | 74 ± 14 | 7 | 80 ± 2 | 0 | 26 ± 19 | Measured Uncoupling (% uncoupling ± SEM @ 100 μM) ([1]; 100 μM): 74 ± 14 % uncoupling |
| O=c1ccoc2cc(O)ccc12 [7-hydroxychromone] | 0 ± 0 |  | 0 ± 0 |  |  | 14 | 86 ± 2 | uncoupling activity ([1]; 100 μM, result in words): no appreciable activity; also recorded: lack of activity |
| O=C1c2ccccc2C(=O)c2ccccc21 [anthraquinone] | −1 ± 1 |  | −1 ± 1 |  |  | 15 | 85 ± 21 | uncoupling activity ([1]; 100 μM, result in words): inactive |
| O=c1cc(-c2ccc(O)cc2)oc2cc(O)cc(O)c12 [apigenin] | 19 ± 3 | 9 ± 1 | 19 ± 3 | 28 | 63 ± 9 | 44 | 37 ± 8 |  |
| O=C(O)c1ccccc1 [benzoic acid] |  |  |  |  |  |  |  | Measured Uncoupling Activity (% uncoupling ± SEM @ 100 μM) [1]: 0 ± 1 % uncoupling; Uncoupling (%) [1]: 0 ± 1%; Inhibitory effect (%) [2]: 4%; Residual capacity (%) [2]: 96 ± 3% |
| COc1ccc(-c2coc3cc(O)cc(O)c3c2=O)cc1 [biochanin A] | 103 ± 22 | 75 ± 36 | 103 ± 22 | 0 | 27 ± 27 | 0 | 0 ± 0 | uncoupling activity ([1]; 100 μM, result in words): complete uncoupling; Measured Uncoupling (% uncoupling ± SEM @ 100 μM) ([1]; 100 μM): >100 % uncoupling |
| O=C(/C=C/c1ccc(O)c(O)c1)OCCc1ccccc1 [caffeic acid phenethyl ester] |  | 56 ± 13 | 57 ± 35 | 5 | 39 ± 12 | 43 | 0 ± 0 |  |
| O=C(O)/C=C/c1ccc(O)c(O)c1 [caffeic acid] | 0 ± 1 |  | 0 ± 1 |  |  | 21 | 79 ± 9 |  |
| Cc1ccc(C(C)C)cc1O [carvacrol] | 7 ± 2 |  | 7 ± 2 |  |  | 10 | 83 ± 2 |  |
| Oc1ccccc1O [catechol] | 0 ± 0 |  | 0 ± 0 |  |  | 12 | 88 ± 1 |  |
| O=c1cc(-c2ccc(O)cc2)oc2c(-c3c(O)cc(O)c4c(=O)cc(-c5ccc(O)cc5)oc34)c(O)cc(O)c12 [cupressuflavone] | −2 ± 0 |  | −2 ± 0 |  |  | 5 | 95 ± 4 |  |
| O=c1c(-c2ccc(O)cc2)coc2cc(O)ccc12 [daidzein] | 6 ± 1 | 3 ± 1 | 6 ± 1 | 19 | 78 ± 5 | 26 | 68 ± 4 |  |
| O=c1c(O)c(-c2ccccc2O)oc2cc(O)cc(O)c12 [datiscetin] | 33 ± 3 | 15 ± 2 | 33 ± 3 | 33 | 52 ± 9 | 67 | 0 ± 0 | uncoupling potency compared with 2,4-dinitrophenol ([1]; dose-escalation): potency on the order of that of 2,4-dinitrophenol; slope of the linear portion of the concentration-to-activity relationship ([1]; dose-escalation): 0.44; inhibition of ADP-stimulated oxygen consumption [2]: inhibitory activity |
| O=C(O[C@@H]1Cc2c(O)cc(O)cc2O[C@@H]1c1cc(O)c(O)c(O)c1)c1cc(O)c(O)c(O)c1 [epigallocatechin gallate] |  |  |  |  |  |  |  | uncoupling activity ([1]; 100 μM, result in words): devoid of activity |
| COc1cc(/C=C/C(=O)O)ccc1O [ferulic acid] | −1 ± 1 |  | −1 ± 1 |  |  | 9 | 91 ± 9 |  |
| O=c1cc(-c2ccccc2)oc2ccccc12 [flavone] | −1 ± 2 |  | −1 ± 2 |  |  | 25 | 75 ± 13 | uncoupling activity ([1]; 100 μM, result in words): inactive |
| Cc1cc(O)c2c(c1)C(=O)c1cc(O)cc(O)c1C2=O [frangulic acid] | 78 ± 14 | 59 ± 16 | 78 ± 14 | 41 | 0 ± 0 | 22 | 0 ± 0 | Measured Uncoupling (% uncoupling ± SEM @ 100 μM) ([1]; 100 μM): 78 ± 14 % uncoupling; uncoupling potency compared with 2,4-dinitrophenol ([1]; dose-escalation): potency on the order of that of 2,4-dinitrophenol; maximal inducible uncoupling ([1]; dose-escalation, 100 μM or below): complete uncoupling |
| O=c1c(O)c(-c2ccccc2)oc2cc(O)cc(O)c12 [galangin] | 95 ± 9 | 102 ± 3 | 95 ± 9 | 0 | 2 ± 2 | 5 | 0 ± 0 | uncoupling activity ([1]; 25 μM): complete uncoupling; Measured Uncoupling (% uncoupling ± SEM @ 100 μM) ([1]; 100 μM): 95 ± 9 % uncoupling; uncoupling potency compared with 2,4-dinitrophenol ([1]; dose-escalation): potency on the order of that of 2,4-dinitrophenol; slope of the linear portion of the concentration-to-activity relationship ([1]; dose-escalation): 1.39 |
| CC(=O)c1ccc(O)cc1 [para-acetylphenol] |  |  |  |  |  |  |  | uncoupling activity ([1]; 100 μM, result in words): no appreciable activity |
| Oc1ccc(C=Cc2cc(O)cc(O)c2)cc1 [resveratrol] |  |  |  |  |  |  |  | inhibition of ADP-stimulated oxygen consumption [2]: inhibitory activity |
| C(=Cc1ccccc1)c1ccccc1 [stilbene] |  |  |  |  |  |  |  | uncoupling activity ([1]; 100 μM, result in words): inactive |
| Oc1cc(O)cc(/C=C/c2ccc(O)c(O)c2)c1 [trans-piceatannol] | 5 ± 1 |  |  |  |  |  |  |  |
| Oc1ccc(/C=C/c2cc(O)cc(O)c2)cc1 [trans-resveratrol] | 2 ± 0 |  |  |  |  |  |  |  |
| C(=C\c1ccccc1)/c1ccccc1 [trans-stilbene] | −1 ± 1 |  |  |  |  |  |  |  |
